Series [1] in a line: Chemical stability in aqueous buffer solution at different pH, followed kinetically. Format: physicochemical.
The subject of the next series is gastric acid secretion. The series is described as follows: Inhibiting effect in vivo on gastric acid secretion in conscious dog (histamine-stimulated, chronic gastric fistula dog). To be noted: inhibition during the 2nd hour after dose. How it is done: Chronic gastric fistula dog were used. These dogs have been surgically provided with a gastric cannula in the stomach and a duodenal fistula, used for direct intraduodenal administration of test compounds. Following a 4 weeks' recovery period after surgery, tests were performed once a week on each dog. Food and water were withdrawn 18 hours before each test.
Gastric acid secretion was induced by a continuous 4 h infusion of histamine at individual doses (400-600 nmol/kg^.h,iv) resulting in approximately 90% of maximal secretion of gastric acid. After 1 h of histamine stimulation, test compounds or vehicle were administered, either iv or im (vehicle = 0.5% saline) or id (vehicle = 0.5% Methocel®, 90 HG 15000, Dow Chem Corp.) via a catheter through the duodenal fistula. The gastric juice was collected by free flow from the gastric cannula in consecutive 30 min. samples during the duration of the histamine infusion. The samples were titrated to pH 7.0 with 0.1 M or 1.0 M NaOH using an automatic titrator and the acid output was calculated. The acid output during the periods after administration of test compound or vehicle was expressed as the fraction of the output during the period preceding these administrations, and the per cent inhibition of acid secretion was calculated by comparing in each dog the fractional responses induced by the test compound to the corresponding vehicle-induced fractional responses.
The test results given in Table 5 below represent inhibition during the 2nd hour after dose.

Another series is described as follows: Solubility in water. Format: physicochemical. How it is done: By comparison, the sodium salt of omeprazole, 5-methoxy-2-[[(4-methoxy 3-5-dimethyl-pyridinyl)methyl] sulfinyl]-1-H-benzimidazole, has a solubility of 0.4 mg per ml at pH 9, a pH considered suitable for i.v. administration.
[2] abbreviates: pH 5, 37°C, aqueous buffer solution, low concentration, read-out: t 1/2 (hours) pH 5 (converted).
Where [3] appears, read: pH 7.3, 37°C, aqueous buffer solution, low concentration, read-out: t 1/2 (hours) pH 7.3 (converted).

Structures can show the parent of a compound that is named as a salt. Where two headings read alike, the source gives them in different places.

Usually solubility stands for the concentration that dissolves in the medium under given conditions.

Regarding `CCOP(=O)(O)OCn1c([S+]([O-])Cc2ncc(C)c(OC)c2C)nc2ccc(OC)cc21` (stereo not drawn) [Example 33], in series [1] (pH 5, 37°C, aqueous buffer solution, low concentration), the “t 1/2 (hours) pH 5” value was “No decomp. after 30 h”. Besides, the “Inhibition of acid secretion (%)” value is 97 (1) % with gastric acid secretion (1 μmol/kg id) and 98 (1) % in the series on gastric acid secretion (4 μmol/kg id).
Take `COc1ccc2[nH]c([S+]([O-])Cc3ncc(C)c(OC)c3C)nc2c1` (stereo not drawn) [Omeprazole-Na^⊕]: the half-life is 0.07 h in series [1] (pH 2, 37°C, aqueous buffer solution, low concentration, read-out: t 1/2 (hours) pH 2 (converted)); 0.04 h in series [1] (setting [2]); 20 h in series [1] (setting [3]).
As for `COc1ccc2[nH]c([S+]([O-])Cc3ncc(C)c(OC)c3C)nc2c1` (stereo not drawn) [omeprazole, 5-methoxy-2-[[(4-methoxy 3-5-dimethyl-pyridinyl)methyl]sulfinyl]-1-H-benzimidazole, reference compound], in the series “Solubility in water” (at pH 9, a pH considered suitable for i.v. administration, sodium salt, read-out: solubility), the solubility is 0.4 mg/mL.
In the case of `COc1ccc2c(c1)nc([S+]([O-])Cc1ncc(C)c(OC)c1C)n2COC(=O)CCC(=O)N1CCN(C)CC1` (stereo not drawn) [Example 34], the half-life in series [1] (pH 3, 37°C, aqueous buffer solution, low concentration, read-out: t 1/2 (hours) pH 3 (converted)) was 80 h; in series [1] (setting [2]), 100 h; in series [1] (setting [3]), 40 h.
As for `COc1ccc2c(c1)nc([S+]([O-])Cc1ncc(C)c(OC)c1C)n2COP(=O)(O)O` (stereo not drawn) [Example 32, phosphoric acid, [5-methoxy-[2[[(4-methoxy-3,5-dimethyl-2-pyridinyl)methyl]sulfinyl]-1-H-benzimidazole-1-yl]]methyl ester, disodium salt], the half-life in series [1] (setting [3]) was 51 h. For the same molecule, the “Inhibition of acid secretion (%)” value in the series on gastric acid secretion (0,3 μmol/kg iv) is given as 55 (1) %; with gastric acid secretion (0,6 μmol/kg iv), 53 (1) %.
Consider `COc1c(C)cnc(C[S+]([O-])c2nc3ccccc3n2COC(=O)CCC(=O)N2CCN(C)CC2)c1C` (stereo not drawn) [Example 3], for which the half-life in series [1] (setting [2]) is 112 h; in series [1] (setting [3]), 32 h. Further, in “Solubility in water” (water), the solubility is > 60 mg/mL. Further, the results for the “Inhibition of acid secretion (%)” value with gastric acid secretion (0,3 μmol/kg iv), with gastric acid secretion (1 μmol/kg iv) and in the series with gastric acid secretion (2 μmol/kg id) were 72 (1) %, 98 (1) % and 100 (1) %, respectively.
With `COc1ccc2nc([S+]([O-])Cc3ncc(C)c(OC)c3C)n(COP(=O)(O)O)c2c1` (stereo not drawn) [Example 29], the degraded at 600 h in series [1] (aqueous buffer, after 25 days at 22° at the concentration 50 mg/ml, footnote to the pH 9.5 value, read-out: decomposition) amounted to 12%. The half-life in series [1] (setting [3]) is 74 h; in series [1] (pH 9.5, 37°C, aqueous buffer solution, low concentration, read-out: t 1/2 (hours) pH 9.5) it was > 600 h. Moreover, the solubility in the series “Solubility in water” (water) is > 60 mg/mL. Moreover, the “Inhibition of acid secretion (%)” value is 45 (1) % with gastric acid secretion (0,3 μmol/kg iv), 60 (1) % with gastric acid secretion (0,5 μmol/kg iv), 90 (1) % with gastric acid secretion (1 μmol/kg im) and 80-85 (2) % with gastric acid secretion (1 μmol/kg iv).

The record behind these values is patent EP0510719A1, “Benzimidazole derivatives substituted with a radical group and their use for inhibiting gastric acid secretion” (priority 1986, dated 1988).
